Laboratory results from ChEMBL document CHEMBL1201862, “PubChem BioAssay data set” (2004).
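Following 48 hours of exposure in 96-well plates, responses at five concentrations were used to interpolate endpoints linearly. The concentration for 50% growth inhibition is given as GI50.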 Active and inactive are the calls of the source. No stated cut-off is given here; in the data, active = GI50 up to about 1.1 µM and inactive = higher.

Key:
Assay in all cases: DTP human tumour cell line panel, 48 h
[1] = system: 786-0
[2] = system: CAKI-1
[3] = system: CCRF-CEM
[4] = system: COLO 205
[5] = system: HCC 2998
[6] = system: HOP-62
[7] = system: IGROV-1
[8] = system: K562
[9] = system: LOX IMVI
[10] = system: M14
[11] = system: M19-MEL
[12] = system: MOLT-4
[13] = system: NCI-H226
[14] = system: NCI-H23
[15] = system: OVCAR-8
[16] = system: PC-3
[17] = system: SF-539
[18] = system: SK-MEL-5
[19] = system: UACC-62
[20] = system: UO-31

Structure (SMILES)	GI50 [1]	GI50 [2]	GI50 [3]	GI50 [4]	GI50 [5]	GI50 [6]	GI50 [7]	GI50 [8]	GI50 [9]	GI50 [10]	GI50 [11]	GI50 [12]	GI50 [13]	GI50 [14]	GI50 [15]	GI50 [16]	GI50 [17]	GI50 [18]	GI50 [19]	GI50 [20]
Cc1nc(Nc2ccc(Cl)c(Cl)c2)sc1C(/C=C/c1ccc2c(c1)OCO2)=N/Nc1ccc([N+](=O)[O-])cc1[N+](=O)[O-]	20.1 µM (inactive)	> 46.5 µM (inactive)	80.9 µM (inactive)	> 100 µM (inactive)	> 78.5 µM (inactive)	59.8 µM (inactive)	> 100 µM (inactive)	> 80.4 µM (inactive)	67 µM (inactive)	61.7 µM (inactive)	> 100 µM (inactive)	> 56.2 µM (inactive)	> 59 µM (inactive)	67.3 µM (inactive)	> 100 µM (inactive)	> 100 µM (inactive)	43.8 µM (inactive)	> 82.8 µM (inactive)	> 61.9 µM (inactive)	78.2 µM (inactive)
O=C1/C(=C/c2ccccc2)CN(C(=O)Oc2ccc([N+](=O)[O-])cc2)C/C1=C\c1ccccc1	4.49 µM (inactive)	> 10 µM (inactive)	1.38 µM (inactive)	7.83 µM (inactive)	2.74 µM (inactive)	> 10 µM (inactive)	6.84 µM (inactive)	0.859 µM (active)	0.676 µM (active)	0.908 µM (active)	1.77 µM (inactive)	0.649 µM (active)	> 10 µM (inactive)	7.76 µM (inactive)	1.12 µM (active)	–	9.42 µM (inactive)	3.64 µM (inactive)	2.41 µM (inactive)	9.77 µM (inactive)
CCC(/C=C/C1OC(=O)C=CC1C)=C\C(C)C/C=C/C(C)=C/C(C)C(=O)C(C)C(O)C(C)C/C(C)=C/C(=O)O (centres undefined)	< 1e-06 µM (active)	0.807 µM (active)	0.895 µM (active)	3.69 µM (inactive)	6.76e-06 µM (active)	2.62 µM (inactive)	4.07 µM (inactive)	1.02 µM (active)	< 1e-06 µM (active)	5.27e-06 µM (active)	1.16 µM (inactive)	1.06 µM (active)	1.67 µM (inactive)	1.04 µM (active)	3.14 µM (inactive)	1.27e-05 µM (active)	1.04 µM (active)	4.88e-05 µM (active)	1.56 µM (inactive)	2.35 µM (inactive)
COc1ccc2c(c1)c1ccc3c(c1n2C)C(=O)C=CC3=O	6.78 µM (inactive)	8.26 µM (inactive)	0.455 µM (active)	9.75 µM (inactive)	17.9 µM (inactive)	35.5 µM (inactive)	12.7 µM (inactive)	1.22 µM (inactive)	8.83 µM (inactive)	10.4 µM (inactive)	25.4 µM (inactive)	0.834 µM (active)	14.3 µM (inactive)	13 µM (inactive)	11.4 µM (inactive)	12.8 µM (inactive)	13 µM (inactive)	19.3 µM (inactive)	12.8 µM (inactive)	11.4 µM (inactive)
